Our source for the IC50 values is patent US20240425479A1, “HALO-SUBSTITUTED AMINO AZA-HETEROARYL COMPOUNDS AS INHIBITORS OF THE HAEMATOPOIETIC PROGENITOR KINASE 1 (HPK1)” (priority 2021, published 2024).

The assay concerns the target T1, Recombinant (1-346) HPK1 (h) (Homo sapiens, UniProt Q92918).
T1 construct: Recombinant (1-346) HPK1 (h) is incubated with 8 mM MOPS pH 7.0
T1 sequence (Q92918 1-346): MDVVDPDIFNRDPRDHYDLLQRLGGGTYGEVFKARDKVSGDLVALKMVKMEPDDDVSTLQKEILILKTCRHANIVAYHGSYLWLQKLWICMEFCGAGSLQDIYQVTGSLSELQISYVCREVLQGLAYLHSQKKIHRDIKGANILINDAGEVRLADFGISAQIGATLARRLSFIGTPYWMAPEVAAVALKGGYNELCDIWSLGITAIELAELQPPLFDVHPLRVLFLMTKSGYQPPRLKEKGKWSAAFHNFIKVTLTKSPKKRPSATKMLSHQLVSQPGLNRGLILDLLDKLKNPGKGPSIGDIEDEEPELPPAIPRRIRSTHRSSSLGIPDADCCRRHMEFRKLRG
Nature of the assay: HPK1 human STE kinase enzymatic radiometric assay. The settings on record: read-out: HPK1 IC50 nM Range. The format is biochemical. How it is done:
(a) HPK1 Human STE Kinase Enzymatic Radiometric Assay
A stock solution of 10 mM of test compound is prepared in DMSO. The compound plate was prepared by 3-fold and 9-point serial dilutions. Recombinant (1-346) HPK1 (h) is incubated with 8 mM MOPS pH 7.0, 0.2 mM EDTA, 0.33 mg/mL myelin basic protein, 10 mM MgAcetate and [gamma-33P]-ATP (specific activity and concentration as required). The reaction is initiated by the addition of the Mg/ATP mix. After incubation for 40 minutes at RT, the reaction is stopped by the addition of phosphoric acid to a concentration of 0.5%, 10 μL of the reaction is then spotted onto a P30 filtermat and washed four times for 4 minutes in 0.425% phosphoric acid and once in methanol prior to drying and scintillation counting. For more details of kinase assay protocols, see: Gao, Y. et. al.; Biochem J.451 (2): 313-328, 2013.
In general, IC50 refers to the concentration at which inhibition is half-maximal. As for `CCN(C)Cc1cc(-c2nc(-c3ccc4c(=O)[nH]cc(C)c4c3)c(N)nc2F)ccc1OC` [Example I-301, 6-(3-amino-6-(3-((ethyl(methyl)amino)methyl)-4-methoxyphenyl)-5-fluoropyrazin-2-yl)-4-methylisoquinolin-1(2H)-one], the IC50 fell in the range of 11 to 100 nM.

In the case of `CN(C)Cc1cc(-c2nc(-c3cc4c(cc3F)C(=O)NCC4)c(N)nc2F)ccc1F` [Example I-273, 6-(3-amino-6-(3-((dimethylamino)methyl)-4-fluorophenyl)-5-fluoropyrazin-2-yl)-7-fluoro-3,4-dihydroisoquinolin-1(2H)-one], the IC50 was in the range of 11 to 100 nM.

Turning to `Nc1nc(F)c(-c2ccc(N3CCN(CC4CC4)CC3)cc2)nc1-c1cc2c(F)c[nH]c(=O)c2cc1F` [Example I-141, 6-(3-amino-6-(4-(4-(cyclopropylmethyl)piperazin-1-yl)phenyl)-5-fluoropyrazin-2-yl)-4,7-difluoroisoquinolin-1(2H)-one], the IC50 was in the range of 0.1 to 10 nM.

With `C[C@H]1CCCN1Cc1cc(-c2nc(-c3cc(F)c4c(c3)CCNC4=O)c(N)nc2F)ccc1C1CCOCC1` [Example I-220, (S)-6-(3-amino-5-fluoro-6-(3-((2-methylpyrrolidin-1-yl)methyl)-4-(tetrahydro-2H-pyran-4-yl)phenyl)pyrazin-2-yl)-8-fluoro-3,4-dihydroisoquinolin-1(2H)-one], the half-inhibitory concentration (IC50) was 11 to 100 nM.

Take `COC1CN(Cc2cc(-c3nc(-c4ccc5c(c4)CCNC5=O)c(N)nc3F)ccc2C2CCOCC2)C1` [Example I-193, 6-(3-amino-5-fluoro-6-(3-((3-methoxyazetidin-1-yl)methyl)-4-(tetrahydro-2H-pyran-4-yl)phenyl)pyrazin-2-yl)-3,4-dihydroisoquinolin-1(2H)-one]: the IC50 is 0.1 to 10 nM.

In the case of `Cc1[nH]c(=O)c2ccc(-c3nc(-c4ccc(N5CCN(C(C)C)CC5)cc4)c(F)nc3N)cc2c1Cl` [Example I-43, 6-(3-amino-5-fluoro-6-(4-(4-isopropylpiperazin-1-yl)phenyl)pyrazin-2-yl)-4-chloro-3-methylisoquinolin-1(2H)-one], the IC50 lay in the range of 0.1 to 10 nM.

As to `CN(C)Cc1cc(-c2nc(-c3cc4c(cc3F)C(=O)NCC4)c(N)nc2F)ccc1N1CCSCC1` [Example I-129, 6-(3-amino-6-(3-((dimethylamino)methyl)-4-thiomorpholinophenyl)-5-fluoropyrazin-2-yl)-7-fluoro-3,4-dihydroisoquinolin-1(2H)-one], the IC50 was in the range of 0.1 to 10 nM.

As for `CCN1CCN(c2ccc(-c3nc(-c4ccc5c(c4)CCNC5=O)c(N)nc3F)cc2)CC1` [Example I-55, 6-(3-amino-6-(4-(4-ethylpiperazin-1-yl)phenyl)-5-fluoropyrazin-2-yl)-3,4-dihydroisoquinolin-1(2H)-one], the IC50 was 0.1 to 10 nM.

In the case of `COc1ccc(-c2nc(-c3ccc4c(c3)CCNC4=O)c(N)nc2F)cc1CN(C)C` [Example I-250, 6-(3-amino-6-(3-((dimethylamino)methyl)-4-methoxyphenyl)-5-fluoropyrazin-2-yl)-3,4-dihydroisoquinolin-1(2H)-one], the IC50 lay in the range of 11 to 100 nM.

For `CN(C)Cc1cccc(-c2nc(-c3ccc4c(=O)[nH]cc(F)c4c3)c(N)nc2F)c1` [Example I-281, 6-(3-amino-6-(3-((dimethylamino)methyl)phenyl)-5-fluoropyrazin-2-yl)-4-fluoroisoquinolin-1(2H)-one], the IC50 was in the range of 11 to 100 nM.

Take `COCCN(C)Cc1cc(-c2nc(-c3cc(F)c4c(c3)CCNC4=O)c(N)nc2F)ccc1N1CCOCC1` [Example I-162, 6-(3-amino-5-fluoro-6-(3-(((2-methoxyethyl)(methyl)amino)methyl)-4-morpholinophenyl)pyrazin-2-yl)-8-fluoro-3,4-dihydroisoquinolin-1(2H)-one]: the IC50 lay in the range of 0.1 to 10 nM.

For the compound `CN(C)Cc1cc(-c2nc(-c3ccc4c(=O)[nH]cc(F)c4c3)c(N)nc2F)ccc1OC(F)F` [Example I-270, 6-(3-amino-6-(4-(difluoromethoxy)-3-((dimethylamino)methyl)phenyl)-5-fluoropyrazin-2-yl)-4-fluoroisoquinolin-1(2H)-one], the concentration for half-maximal inhibition (IC50) lay in the range of 0.1 to 10 nM.

`CC(C)N1CCN(c2ccc(-c3nc(-c4ccc5c(c4)C4(CC4)NCC5=O)c(N)nc3F)cc2)CC1` [Example I-260, 7′-(3-amino-5-fluoro-6-(4-(4-isopropylpiperazin-1-yl)phenyl)pyrazin-2-yl)-2′,3′-dihydro-4′H-spiro[cyclopropane-1,1′-isoquinolin]-4′-one]: the IC50 lay in the range of 101 to 1000 nM.

On to `Nc1nc(F)c(-c2ccc(N3CCOCC3)c(CN3CCCCC3)c2)nc1-c1cc2c(cc1F)C(=O)NCC2` [Example I-186, 6-(3-amino-5-fluoro-6-(4-morpholino-3-(piperidin-1-ylmethyl)phenyl)pyrazin-2-yl)-7-fluoro-3,4-dihydroisoquinolin-1(2H)-one], for which the IC50 was 11 to 100 nM.

In the case of `CN(C)Cc1cc(-c2nc(-c3ccc4c(c3)CCNC4=O)c(N)nc2F)ccc1N1CCSCC1` [Example I-128, 6-(3-amino-6-(3-((dimethylamino)methyl)-4-thiomorpholinophenyl)-5-fluoropyrazin-2-yl)-3,4-dihydroisoquinolin-1(2H)-one], the IC50 was in the range of 0.1 to 10 nM.

For `COC1CCN(Cc2cc(-c3nc(-c4ccc5c(c4)CCNC5=O)c(N)nc3F)ccc2N2CCSCC2)CC1` [Example I-126, 6-(3-amino-5-fluoro-6-(3-((4-methoxypiperidin-1-yl)methyl)-4-thiomorpholinophenyl)pyrazin-2-yl)-3,4-dihydroisoquinolin-1(2H)-one], the IC50 was 11 to 100 nM.

In the case of `COCCN(C)Cc1cc(-c2nc(-c3cc4c(cc3F)C(=O)NCC4)c(N)nc2F)ccc1C1CCOCC1` [Example I-175, 6-(3-amino-5-fluoro-6-(3-(((2-methoxyethyl)(methyl)amino)methyl)-4-(tetrahydro-2H-pyran-4-yl)phenyl)pyrazin-2-yl)-7-fluoro-3,4-dihydroisoquinolin-1(2H)-one], the IC50 fell in the range of 0.1 to 10 nM.

For `CN(C)Cc1cc(-c2nc(-c3cc4c(cc3F)C(=O)NCC4)c(N)nc2F)ccc1N1CCOCC1` [Example I-65, 6-(3-amino-6-(3-((dimethylamino)methyl)-4-morpholinophenyl)-5-fluoropyrazin-2-yl)-7-fluoro-3,4-dihydroisoquinolin-1(2H)-one], the 50% inhibitory concentration (IC50) fell in the range of 0.1 to 10 nM.

As to `CO[C@@H]1CCN(Cc2cc(-c3nc(-c4cc5c(cc4F)C(=O)NCC5)c(N)nc3F)ccc2N2CCOCC2)C1` [Example I-152, (R)-6-(3-amino-5-fluoro-6-(3-((3-methoxypyrrolidin-1-yl)methyl)-4-morpholinophenyl)pyrazin-2-yl)-7-fluoro-3,4-dihydroisoquinolin-1(2H)-one], the half-maximal inhibitory concentration (IC50) lay in the range of 0.1 to 10 nM.

With `CN(C)Cc1cc(-c2nc(-c3cc(F)c4c(c3)CCNC4=O)c(N)nc2F)ccc1OCC1CCOCC1` [Example I-180, 6-(3-amino-6-(3-((dimethylamino)methyl)-4-((tetrahydro-2H-pyran-4-yl)methoxy)phenyl)-5-fluoropyrazin-2-yl)-8-fluoro-3,4-dihydroisoquinolin-1(2H)-one], the IC50 lay in the range of 0.1 to 10 nM.

In the case of `Cc1c[nH]c(=O)c2ccc(-c3nc(-c4cc(CN(C)C)c(N5CCOCC5)cc4F)c(F)nc3N)cc12` [Example I-261, 6-(3-amino-6-(5-((dimethylamino)methyl)-2-fluoro-4-morpholinophenyl)-5-fluoropyrazin-2-yl)-4-methylisoquinolin-1(2H)-one], the IC50 lay in the range of 101 to 1000 nM.

As for `CN(C)[C@@H]1COc2ccc(-c3nc(-c4ccc5c(=O)[nH]ccc5c4)c(N)nc3F)cc21` [Example I-283, (S)-6-(3-amino-6-(3-(dimethylamino)-2,3-dihydrobenzofuran-5-yl)-5-fluoropyrazin-2-yl)isoquinolin-1(2H)-one], the IC50 was in the range of 11 to 100 nM.

For `CN(C)Cc1cc(-c2nc(-c3ccc4c(c3)CCNC4=O)c(N)nc2F)cnc1N1CCOCC1` [Example I-237, 6-(3-amino-6-(5-((dimethylamino)methyl)-6-morpholinopyridin-3-yl)-5-fluoropyrazin-2-yl)-3,4-dihydroisoquinolin-1(2H)-one], the half-maximal inhibitory concentration (IC50) fell in the range of 11 to 100 nM.

For the compound `CC(C)N1CCN(c2ccc(-c3nc(-c4cc5c(cc4F)C(=O)NCC5)c(N)nc3F)cc2)[C@H](C)C1` [Example I-51, (R)-6-(3-amino-5-fluoro-6-(4-(4-isopropyl-2-methylpiperazin-1-yl)phenyl)pyrazin-2-yl)-7-fluoro-3,4-dihydroisoquinolin-1(2H)-one], the IC50 lay within 0.1 to 10 nM.

Regarding `Cc1nc2cc(-c3nc(-c4ccc(C5CCOCC5)c(CN5CCC[C@@H]5C)c4)c(F)nc3N)cc(F)c2c(=O)[nH]1` [Example I-219, (S)-7-(3-amino-5-fluoro-6-(3-((2-methylpyrrolidin-1-yl)methyl)-4-(tetrahydro-2H-pyran-4-yl)phenyl)pyrazin-2-yl)-5-fluoro-2-methylquinazolin-4(3H)-one], the half-maximal inhibitory concentration (IC50) is 101 to 1000 nM.
